Test results taken from PMC5742583, “A Functional Analysis on the Interspecies Interaction between Mouse LFA-1 and Human Intercellular Adhesion Molecule-1 at the Cell Level” (Frontiers in Immunology, 2017).
Where no end group is shown, it is not given here.

Columns and labels:
[1] = system: mouse B cells (ICAM-1/LFA-1 interaction); test: Homotypic B cell aggregation assay; format: cell-based; settings: splenocytes activated with PHA and ionomycin, overnight 37°C
Description: To obtain these cells, mice were sacrificed by cervical dislocation, the spleens were removed, and splenocytes were isolated and resuspended in RPMI 10% FBS at a final concentration of 10^6 cells/ml. Cells were treated with 10 µg/ml PHA and 1 µg/ml ionomycin to activate LFA-1 and incubated at 37°C 5% CO2 overnight in flat bottom 96-well plates (10^5 cells) in the presence of peptides from LFA-1 and c-Myc (control) 250 µM, D1D2, D1D2Fc, and human IgG1 10 µg, EGTA 1 mM and lovastatin 100 µM. A qualitative aggregation assay was carried out as described ([36], [41]) with a slight modification. Briefly, positive control stimulated cell samples were arbitrarily assigned a clumping index of 10 and lovastatin samples an index of 1. Test samples were ranked from 1 to 10 based upon degree of clumping relative to stimulated and lovastatin-treated samples. Results were verified by a blind independent rating performed by a second observer.
Fresh mouse B cells were obtained from splenocytes and stimulated with PHA and ionomycin to induce homotypic adhesion. The results were quantified by establishing a clumping index that represents the degree of cell aggregation, which reflects the inhibition efficiency (Figure 3B). Cell aggregation was ranked by a clumping index from 1 to 10 based on the degree of aggregation in comparison with the stimulated cells (positive control, clumping index = 10).
Figure 3 Effect of human (ICAM-1) on the aggregation of mouse spleen cells. (A) Splenocytes isolated from mice were non treated (a) or activated with PHA (b–i) as described in Section “Experimental Procedures” and further incubated overnight with (b) medium; (c) IgG1; (d) c-Myc peptide; (e) EGTA; (f) lovastatin; (g) D1D2; (h) D1D2Fc; (i) mouse LFA-1 peptide CD11a235–259. Images were taken with an optical microscope (original magnification, 10×). Representative images from two independent experiments with similar results are shown. (B) The graph represents the rate of agglutination depending on the inhibitory effect on ICAM-1/LFA-1 interaction. Cells stimulated with PHA and ionomycin, which served as a positive control, were arbitrarily assigned agglutination index 10, which represents a percentage of aggregation between 90 and 100%. Homotypic aggregation was classified from 1 to 10 depending on the degree of aggregation relative to cells stimulated. The result was verified by a second independent observer. Values are presented as mean ± SEM of two separate experiments performed by duplicate. Statistical analysis was performed using two-way analysis of variance with Bonferroni’s posttest comparing with c-Myc peptide control. *p < 0.05; ***p < 0.001.

[2] = system: gp33-pulsed EL4 cells killed by mouse Tc cells (ICAM-1/LFA-1); test: CD8+ T cell-mediated cytotoxicity on EL4; format: cell-based; settings: preincubation 45 min 37°C, effector:target 10:1, 4 h
human monocytes = test: Human monocyte adhesion to plastic (MTT); format: cell-based; settings: lovastatin 100 µM, 37°C overnight
Description: (§1) Monocytes were isolated from human peripheral blood mononuclear cells (PBMCs), obtained from healthy donors (Blood and Tissue Bank of Aragon; approved by the CEICA, number: C.I.PI11/006) by density gradient centrifugation using Ficoll-Paque (GE healthcare). PBMCs were resuspended at a concentration of 2.5 × 10^6 cells/ml in RPMI medium supplemented with 1% heat-inactivated human AB serum (Sigma). Cells were cultured in a Petri dish for 2 h at 37°C 5% CO2. […]
(§2) Freshly isolated monocytes or differentiated macrophages were washed twice with PBS and incubated with trypsin (PAN Biotech) for 30 min at 37°C 5% CO2. […] Next day, every well was washed twice with PBS, complete RPMI medium was added and the number or adherent remaining cells was quantified by a MTT colorimetric test ([38]). […]
(§3) Figure 6 LFA-1 is involved in human macrophage adhesion. […] (B) Macrophage phenotype was analyzed by flow cytometry testing the expression of HL-DR, CD14, CD54, and CD11a. […] Subsequently, every well was washed twice with PBS to remove non-adherent cells and quantification of cell adhesion was carried out by MTT as described in Section “Experimental Procedures.” Values are presented as mean ± SEM of three independent experiments performed by duplicate. […]

human macrophages = test: Human macrophage adhesion to plastic (MTT); format: cell-based; settings: lovastatin 100 µM, 37°C overnight
Description: as §1, §2, §3

mouse macrophages = test: Mouse macrophage adhesion to uncoated plastic (MTT); format: cell-based; settings: lovastatin 100 µM, 37°C overnight
Description: Mouse macrophages were differentiated from mouse bone marrow as previously described ([37]). Briefly, bone marrow cells isolated from mouse femur were cultured in DMEM 10% FBS, 5% horse serum, and 30% supernatant of L929 cell culture as a source of M-CSF at a density of 10^6/cm^2 for 7–8 days. Macrophage differentiation was analyzed in the same way as human macrophages but using CD11b-APC and CD11c-PE (BD) antibodies.
Freshly isolated monocytes or differentiated macrophages were washed twice with PBS and incubated with trypsin (PAN Biotech) for 30 min at 37°C 5% CO2. After that, cells were scraped gently from the plate and resuspended at a final concentration of 10^6 cells/ml in complete RPMI medium. Subsequently, 10^5 macrophages and 5 × 10^5 monocytes were added to each well and incubated with several concentrations of human D1D2, D1D2Fc, D1D5Fc, mouse D1D5Fc, control human IgG1 20 µg or lovastatin 100 µM at 37°C 5% CO2 overnight. Next day, every well was washed twice with PBS, complete RPMI medium was added and the number or adherent remaining cells was quantified by a MTT colorimetric test ([38]). In some experiments, plates previously coated with human and mouse D1D5Fc were used. […]
Figure 7 Human intercellular adhesion molecule (ICAM)-1 blocks LFA-1-mediated mouse macrophage cell adhesion. […] (B) Macrophage phenotype was analyzed by flow cytometry testing the expression CD11b and CD11c. […]

ICAM-1/LFA-1 interaction = settings: cited from earlier work
Description: Human and mouse LFA-1-derived peptides (human: CD11a237–261; mouse: CD11a235–259) were purchased from GenScript (Piscataway, USA) without any modification. […] Besides, incubation cells with a mouse antiCD1 ...

Mac-1 = settings: cited from earlier work
From the text: (§4) In contrast, cell aggregates were clearly visible in cultures after stimulation (Figure 3A, b). […] Macrophage phenotype was confirmed by testing surface antigens by flow cytometry. Monocyte-derived macrophages expressed higher levels of HLA-DR and CD14 than undifferentiated monocytes ([51]). In addition, expression of CD54 (ICAM-1) was diminished in comparison with freshly isolated monocytes (Figure 6B). […] As shown ...

VLA-4 = settings: cited from earlier work
From the text: as §4

D1D2Fc = target: T1, D1D2Fc (Homo sapiens, UniProt P05362); test: Isothermal titration calorimetry (ITC); settings: VP-ITC, D1D2Fc 12 µM titrated with peptide 150 µM, PBS, 25°C, 1:n interaction model, single type of binding sites, nonlinear regression, read-out: dissociation constant (KD)
T1 construct: The synthetic first two domains of ICAM-1 alone (D1D2) or linked with human IgG1 Fc region (D1D2Fc) were expressed in Escherichia coli; made in house; host or cells: Escherichia coli
Description: The ability of the human chimera D1D2Fc to interact with a peptide derived from its natural ligand LFA-1 in mouse was analyzed by ITC on a VP-ITC calorimeter (MicroCal) at 25°C as indicated previously ([34]). Briefly, 2.2 ml of a 12-µM solution of D1D2Fc and 0.5 ml of a 150-µM solution of peptide were prepared in PBS and degassed. Each assay consisted of a series of 28 injections of peptide solution of 10 µl each (with a 4-µl first injection) at 400 s intervals under constant stirring (459 rpm). The thermal power required to keep the cell at a constant temperature is measured, so that it provides the heat associated with each ligand injection after integrating the signal over time. The thermodynamic parameters of protein–peptide interactions (affinity, enthalpy, and entropy changes) as well as the stoichiometry were estimated by using nonlinear regression analysis. Data were analyzed using the software developed and implemented in Origin 7.0 (OriginLab).
Figure 1 Interaction of LFA-1 peptide with D1D2Fc by isothermal titration calorimetry. Purified D1D2Fc (12 µM) was titrated with a peptide derived from the binding site of mouse LFA-1 (CD11a235–259; 150 µM). The assay was performed in PBS buffer at 25°C. The nonlinear regression analysis done as described in Section “Experimental Procedures” provided a dissociation constant of 70 nM.

[3] = system: K562 cells killed by human NK cells (ICAM-1/LFA-1); test: NK cell-mediated cytotoxicity on K562; format: cell-based; settings: peptide 250 µM, preincubation 45 min 37°C; effector:target 3:1, 4 h; annexin-V/7-AAD by FACS; vs c-Myc control; two experiments by duplicate
Description: The effect of human and mouse peptides derived from LFA-1 on ICAM-1/LFA-1 dependent cell–cell contact was analyzed by performing a cell cytotoxicity assay using human primary NK cells and the NK cell sensitive human leukemia K562. Primary activated human NK cells were generated by culturing PBMCs with mitomycin C inactivated R69 cells for 5 days and enriched by MACS using anti-CD56 antibodies as previously described ([39]). Cell cytotoxicity induced by NK cells on K562 was analyzed by flow cytometry as previously described ([39]). Briefly, K562 cells were preincubated with medium alone, in the presence of 250 µM of human and mouse peptides from LFA-1 or D1D2 (15 µg) for 45 min at 37°C. Then, NK cells were added at 3:1 effector:target cell ratio and incubated for 4 h at 37°C, 5% CO2. Subsequently, phosphatidylserine exposure and 7-AAD uptake were analyzed by FACS using the annexin-V/7-AAD kit from Immunostep. As a control, the cells were incubated alone with the inhibitors to evaluate their possible toxicity, which was not significant in any case.
Figure 4 Inhibition of natural killer (NK) cell-mediated cytotoxicity by human intercellular adhesion molecule-1. […] Cell death was analyzed by measuring translocation of PS by flow cytometry in the negative population for CFSE as described in experimental procedures. […]

T1 sequence (P05362 with tags, fused parts or gaps limits assumed): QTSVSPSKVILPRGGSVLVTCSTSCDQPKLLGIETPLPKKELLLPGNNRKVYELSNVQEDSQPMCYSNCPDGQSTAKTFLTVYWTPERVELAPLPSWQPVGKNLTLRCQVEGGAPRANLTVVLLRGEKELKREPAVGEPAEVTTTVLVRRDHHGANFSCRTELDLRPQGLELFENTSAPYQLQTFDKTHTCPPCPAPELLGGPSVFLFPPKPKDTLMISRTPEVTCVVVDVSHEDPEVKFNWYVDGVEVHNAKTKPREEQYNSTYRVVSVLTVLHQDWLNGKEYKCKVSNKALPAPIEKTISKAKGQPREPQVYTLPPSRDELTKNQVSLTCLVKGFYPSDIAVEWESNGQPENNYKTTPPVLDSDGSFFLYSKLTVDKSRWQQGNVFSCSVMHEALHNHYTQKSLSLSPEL

Row | Compound | inhibition of B cell aggregation ([1]; lovastatin 100 µM, assigned clumping index 1) | inhibition of Tc cell-mediated cell death of EL4 ([2]; lovastatin 100 µM) | inhibition of adhesion of human monocytes (human monocytes) | inhibition of adhesion of human macrophages (human macrophages) | inhibition of adhesion of mouse macrophages (mouse macrophages) | specific block of ICAM-1/LFA-1 interaction (ICAM-1/LFA-1 interaction; ref [42], [43]) | effect on Mac-1 (Mac-1; ref [42], [43]) | inhibition of Mac-1 (Mac-1; ref [43]) | effect on VLA-4 (VLA-4; ref [42], [43]) | inhibition of VLA-4 (VLA-4; ref [43]) | Kd (D1D2Fc) | inhibition of B cell aggregation ([1]; peptide 250 µM, clumping index 1-10, two experiments by duplicate) | inhibition of NK cell-mediated cell death of K562 [3] | inhibition of Tc cell-mediated cell death of EL4 ([2]; peptide 250 µM, three experiments by duplicate) | ability to block ICAM-1/LFA-1 interaction (ICAM-1/LFA-1 interaction; ref [36])
1 | CC[C@H](C)C(=O)O[C@H]1C[C@@H](C)C=C2C=C[C@H](C)[C@H](CC[C@@H]3C[C@@H](O)CC(=O)O3)[C@H]21 [lovastatin, reference compound] | inhibit completely the aggregation | inhibited cell death | block completely cell adhesion | block completely cell adhesion | completely inhibit the adhesion | specifically block ICAM-1/LFA-1 interaction | without affecting | not inhibited | without affecting | not inhibited | – | – | – | – | –
2 | ITDGEASDKGNISAAHDITRYIIGI [CD11a235–259] | – | – | – | – | – | – | – | – | – | – | 70 nM | completely blocked B cell aggregation | significantly inhibit cell death | able to inhibit cytotoxicity | ability to block ICAM-1/LFA-1 interaction
